Experimental data taken from PMC9764189 (The Journal of Biological Chemistry, 2022).
Read-outs that look alike come from different tables or passages of the source.

Tests used:
MR1 = MR1 (Homo sapiens, UniProt Q95460); test: biochemical; assay type: binding; conditions: for IC50: IC50, 10 nM JYM20, 100 nM MR1-empty, 25 °C, pH 7.5; for Binder category (ligand affinity for MR1): category by IC50
Chain of MR1 (Q95460 23-302 limits assumed): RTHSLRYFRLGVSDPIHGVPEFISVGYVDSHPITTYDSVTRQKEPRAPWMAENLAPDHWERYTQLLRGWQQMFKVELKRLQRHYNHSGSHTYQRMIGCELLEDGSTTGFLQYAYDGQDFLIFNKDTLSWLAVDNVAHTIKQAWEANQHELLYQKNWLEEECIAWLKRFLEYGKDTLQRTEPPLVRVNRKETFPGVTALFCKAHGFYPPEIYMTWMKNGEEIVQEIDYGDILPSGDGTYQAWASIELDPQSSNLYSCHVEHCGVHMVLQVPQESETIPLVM
Chain of MR1 (P61769 21-119 partner): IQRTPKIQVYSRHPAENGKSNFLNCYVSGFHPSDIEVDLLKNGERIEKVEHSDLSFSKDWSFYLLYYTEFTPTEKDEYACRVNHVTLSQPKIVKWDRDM

## O=Cc1cccc(C(=O)O)c1O [3-F-SA, 3-formylsalicylic acid]
MR1
  IC50: 0.563 µM

## O=C(O)CCNC(=O)c1cc(=O)[nH]c(=O)[nH]1 [DB28, 3-[(2,6-dioxo-1,2,3,6-tetrahydropyrimidin-4-yl)formamido]propanoic acid]
MR1
  IC50: 20 µM

## O=C(O)Cc1ccccc1Nc1c(Cl)cccc1Cl [DCF, diclofenac]
MR1
  IC50: 2600 µM

## CCOc1cc(C=O)ccc1O [Ethylvanillin, ethylvanillin]
C1R.MR1 cells; 3 h incubation
  Upregulation of surface MR1: upregulated
C1R.MR1 cells; 16 h incubation
  Upregulation of surface MR1: no noticeable upregulation
MR1
  IC50: 325 µM

## COc1ccc(O)c(C=O)c1 [HMB, 2-hydroxy-5-methoxybenzaldehyde]
MR1
  IC50: 775 µM
  Binder category (ligand affinity for MR1): weak (weak (IC50 > 100 μM))

## COc1cc(C=O)ccc1O [Vanillin, vanillin]
C1R.MR1 cells; 3 h incubation
  Upregulation of surface MR1: upregulated
C1R.MR1 cells; 3 h incubation, versus DMSO
  Concentration at which MR1 was upregulated significantly: 10 µM
C1R.MR1 cells; 16 h incubation
  Upregulation of surface MR1: modest increase
MR1
  IC50: 325 µM
  Binder category (ligand affinity for MR1): weak (weak (IC50 > 100 μM))
